Experiment: xn = mol fraction of the nth substance listed

CCOC(=O)c1ccccc1 + CCCCCCCCCCCC
101 kPa
Details	viscosity [mPa·s]
298.15 K, x2 = 0.031	1.896
298.15 K, x2 = 0.062	1.835
298.15 K, x2 = 0.0893	1.785
298.15 K, x2 = 0.1261	1.726
298.15 K, x2 = 0.168	1.663
298.15 K, x2 = 0.2378	1.58
298.15 K, x2 = 0.2782	1.532
298.15 K, x2 = 0.3577	1.462
298.15 K, x2 = 0.4064	1.427
298.15 K, x2 = 0.4557	1.396
298.15 K, x2 = 0.5044	1.371
298.15 K, x2 = 0.5519	1.351
298.15 K, x2 = 0.6714	1.331
298.15 K, x2 = 0.7194	1.324
298.15 K, x2 = 0.7886	1.32
298.15 K, x2 = 0.8626	1.325
298.15 K, x2 = 0.9296	1.335
308.15 K, x2 = 0.0462	1.569
308.15 K, x2 = 0.0741	1.532
308.15 K, x2 = 0.1171	1.477
308.15 K, x2 = 0.1439	1.445
308.15 K, x2 = 0.1806	1.405
308.15 K, x2 = 0.2481	1.342
308.15 K, x2 = 0.2629	1.329
308.15 K, x2 = 0.295	1.303
308.15 K, x2 = 0.3388	1.272
308.15 K, x2 = 0.3769	1.249
308.15 K, x2 = 0.4331	1.218
308.15 K, x2 = 0.4765	1.198
308.15 K, x2 = 0.527	1.178
308.15 K, x2 = 0.5759	1.163
308.15 K, x2 = 0.6373	1.149
308.15 K, x2 = 0.7278	1.138
308.15 K, x2 = 0.7527	1.136
308.15 K, x2 = 0.8209	1.134
308.15 K, x2 = 0.9374	1.142
318.15 K, x2 = 0.0278	1.314
318.15 K, x2 = 0.0571	1.276
318.15 K, x2 = 0.0872	1.241
318.15 K, x2 = 0.1222	1.203
318.15 K, x2 = 0.155	1.173
318.15 K, x2 = 0.1942	1.14
318.15 K, x2 = 0.2296	1.113
318.15 K, x2 = 0.2726	1.084
318.15 K, x2 = 0.3115	1.061
318.15 K, x2 = 0.3575	1.037
318.15 K, x2 = 0.3995	1.019
318.15 K, x2 = 0.4522	0.999
318.15 K, x2 = 0.4995	0.984
318.15 K, x2 = 0.5564	0.97
318.15 K, x2 = 0.6085	0.961
318.15 K, x2 = 0.6725	0.954
318.15 K, x2 = 0.7324	0.95
318.15 K, x2 = 0.7851	0.948
318.15 K, x2 = 0.868	0.953

CCCNCCC + CCCCCCCO
viscosity [mPa·s], 101.33 kPa
Details	x1 = 0.0952	x1 = 0.1932	x1 = 0.2891	x1 = 0.3853	x1 = 0.5194	x1 = 0.6089	x1 = 0.717	x1 = 0.8156	x1 = 0.9054
303.15 K	4.145	3.485	2.867	2.311	1.672	1.333	1.02	0.809	0.6553
313.15 K	3.063	2.556	2.111	1.724	1.283	1.045	0.8136	0.6509	0.5273

CCOC(=O)c1ccccc1 + c1ccccc1
298.15 K, 101 kPa
Details	viscosity [mPa·s]
x1 = 0.1302	0.7244
x1 = 0.3809	1.018
x1 = 0.522	1.2
x1 = 0.6112	1.327
x1 = 0.7595	1.557
x1 = 0.848	1.709

CC(C)O + CO
298.15 K, 101.33 kPa
Details	viscosity [mPa·s]
x2 = 0.0893	1.891
x2 = 0.225	1.625
x2 = 0.2835	1.518
x2 = 0.3984	1.332
x2 = 0.5178	1.16
x2 = 0.6024	1.051
x2 = 0.6852	0.945
x2 = 0.8272	0.772
x2 = 0.9058	0.675

N#CCc1ccccc1 + ClC(Cl)C(Cl)Cl
Details	viscosity [mPa·s]
313.15 K, 101 kPa, x1 = 0.7131	1.645

CCCCCCCCCCCl + CCCCCCCCCC
viscosity [mPa·s], 101 kPa
Details	x2 = 0.1	x2 = 0.2004	x2 = 0.2954	x2 = 0.3988	x2 = 0.4972	x2 = 0.593	x2 = 0.6968	x2 = 0.7947	x2 = 0.8906
293.15 K	1.796	1.66	1.539	1.419	1.315	1.225	1.136	1.063	0.997
298.15 K	1.649	1.523	1.415	1.307	1.214	1.133	1.054	0.99	0.931
303.15 K	1.5	1.388	1.291	1.196	1.114	1.042	0.973	0.917	0.867
308.15 K	1.353	1.25	1.167	1.084	1.013	0.951	0.891	0.844	0.802

Source: the CheMixHub viscosity set
